The results in this text go back to the METLIN SMRT retention time set (Domingo-Almenara et al. 2019).

The series can be described thus: gradient 5% acetonitrile 3 min, to 50% in 2 min, to 85% in 15 min, held 3 min, 100 µL/min. As to conditions: column: Zorbax Extend-C18 2.1 x 50 mm; eluents: water / acetonitrile, 0.1% formic acid. A digest of the protocol: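 Retention times come from adduct peaks that were picked computationally and then checked by hand. The standards, pure and pooled in mixtures of ~100 molecules, were run on a Zorbax Extend-C18 column (2.1 × 50 mm, 1.8 μm) at 100 μL/min with water and acetonitrile, each with 0.1% formic acid. Detection was by quadrupole time-of-flight mass spectrometry in positive and negative ionization mode, with a dead volume of 40 μL and a dwell volume of 900 μL.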
The molecule `CCc1ccccc1NS(=O)(=O)c1cn(CC(C)C)c2ncccc12` gave an RP-LC retention time of 1050 s.
Next, `Cc1cc(NCC2CCCO2)n2nc(-c3ccc(Cl)cc3)c(C)c2n1` (stereo not given): 723 s; `O=C(Nc1ccnn1Cc1ccco1)c1cc(=O)c2cc(Cl)ccc2o1`: 830 s; `Cc1nc(-n2nc(C)c(Cl)c2C)sc1C(=O)N1CCOCC1`: 953 s.
`COC(=O)c1cc(C)nc2c1c(=O)n(Cc1ccccc1F)c(=O)n2Cc1ccco1` had an RP-LC retention time of 1070 s.
The molecule `Cc1cc2c(cc1S(=O)(=O)N1CCCC1C(=O)N1CCCCC1)OC(C)C(=O)N2` (stereo not given) came in with an RP-LC retention time of 710 s.
Next, `COc1ccc(OC)c(NC(=O)N2CCc3c(c(C(=O)N4CCOCC4)nn3C)C2)c1`: 648 s; `Cc1cc(C(=O)NCC23CCCC=C2NC(=O)CC3)nn1C` (stereo not given): 641 s; `Cc1ccc(NC(=O)Nc2nccn(-c3ccc(F)cc3)c2=O)cc1C`: 1020 s.
Next, `O=C(COc1ccc(Cl)cc1Cl)NCC(=O)N1CCOC(c2ccccc2)C1` (stereo not given): 927 s; `CCN1C(=O)C2CC3(CCN(C(=O)Nc4ccc5c(c4)OCCO5)CC3)CN2C1=O` (stereo not given): 706 s.
Next, `CCOC(=O)c1sc2nc(C)cc(C(F)(F)F)c2c1N`: 1130 s.
Turning to `Cc1cccc(Oc2nccn3c(=O)n(CC(=O)NCCCc4ccccc4)nc23)c1C`, the RP-LC retention time was 944 s.
For `COc1ccc(OC)c(NC(=O)Cn2c(N3CCOCC3)nc(C)cc2=O)c1` the value was 695 s; for `CCC1CCCCN1CCCNC(=O)CCc1cc2ccccc2[nH]c1=O` (stereo not given), 598 s; for `CCN(CC)S(=O)(=O)c1ccc(C)c(-c2nnc(-c3ccc(Cl)cc3)o2)c1`, 1200 s.
For `O=C(NCc1cccs1)C1CCCN(Cc2nc(-c3cccnc3)no2)C1` (stereo not given) the value was 571 s; for `CSc1ccc(NC(=O)N2CCc3c(c(-c4nc(C5CC5)no4)nn3C)C2)cc1`, 874 s.
For `O=C(Nc1ccc(Cn2cnc(C(=O)NCc3ccc(F)cc3)c2)cc1)c1cccc(F)c1` the value was 769 s.
Take `CCCCN(CCCNC(=O)C1CCN(S(=O)(=O)CCC)CC1)Cc1ccccc1`: the RP-LC retention time was 672 s.
Next, `COc1cc(OC)cc(N2N=NC3C(=O)N(c4ccc(F)cc4)C(=O)C32)c1` (stereo not given): 907 s; `Cc1ccccc1Sc1nccnc1SCC(=O)N1CCN(c2ccccn2)CC1`: 715 s.
`O=C(CCc1ccc2c(c1)CN(C(=O)C1CC1)CCO2)NC1CCS(=O)(=O)C1` (stereo not given): the RP-LC retention time is 617 s.
For `O=C(NCCCN1CCC(N2CCCCC2)CC1)c1cc(=O)n2c(nc3ccccc32)s1` the value was 577 s; for `Cc1cc2c(=O)n(CC(=O)NCc3ccc(F)cc3)ccc2s1`, 751 s; for `COCCc1noc(C2CN(C(=O)C3COc4ccccc4O3)C2)n1` (stereo not given), 736 s.
Next, `CC(=O)N1CCN(c2nc3c(s2)CC(C(=O)N2CCCCC2)CC3)CC1` (stereo not given): 548 s; `Cc1noc(C)c1S(=O)(=O)N1CCC(c2noc(-c3ccncc3)n2)C1` (stereo not given): 789 s; `CC(C)c1noc(-c2ccnc(-n3cnc(C(=O)N4CCOCC4)c3)c2)n1`: 748 s.
Next, `O=C(Nc1nnc(Cc2ccccc2)s1)C1CC(=O)N(c2n[nH]c3ccccc23)C1` (stereo not given): 730 s; `COCC(=O)N1CCC2(CC1)NC(=O)c1ccccc1O2`: 610 s.
In the case of `COc1ccc(CNC(=O)N2CC(c3nc(C)no3)C3(CCOCC3)C2)cc1` (stereo not given), the RP-LC retention time was found to be 680 s.
Next, `CCCCc1nnc(NC(=O)C2CC(=O)N(CCc3c[nH]c4ccc(C)cc34)C2)s1` (stereo not given): 802 s; `CCCN1CCn2cc(C(=O)NC(C)c3ccccc3)nc2C1` (stereo not given): 603 s.
`CCOC(=O)C1=C(CN2CCC(C)CC2)NC(=O)NC1c1ccc(C)cc1` (stereo not given) came in with an RP-LC retention time of 656 s.
Take `COCCc1nncn1C1CCN(S(=O)(=O)c2ccc(Cl)c(C)c2)CC1`: the RP-LC retention time was determined as 769 s.
For `CCCn1c(-c2cccc(C(=O)NCc3cccc(C(F)(F)F)c3)c2)nc2cccnc21` the value was 936 s.
`Cc1ccc(F)c(-n2nnc(C(=O)O)c2-c2ccccn2)c1`: the RP-LC retention time was found to be 917 s.
Next, `COCc1nnc(-c2cc(C)cc(C)c2)o1`: 857 s.
For the molecule `Cn1ncc2c(N3CCCC3)nc(C(=O)NCc3ccc(C(F)(F)F)cc3)nc21`, the RP-LC retention time was found to be 905 s.
The molecule `CCc1nc2cc(N3CCC(C(=O)NCCN4CCOCC4)CC3)cnc2nc1CC` had an RP-LC retention time of 581 s.
For `CCOC(=O)c1nc(NCCc2cc(OC)ccc2OC)c2ccccc2n1` the value was 768 s; for `CCCn1cc(CCNS(=O)(=O)c2ccccc2F)c2cccnc21`, 820 s.
Next, `Cc1ccc2nc(C(=O)NCc3ccc4c(c3)OCO4)cn2c1`: 628 s; `CCC(C)CC(=O)N1CCCN(C2=NS(=O)(=O)C(c3ccc(Cl)cc3)=C2C)CC1` (stereo not given): 944 s; `CC(C)(C)c1ccc(C(=O)NCc2cnn3ccccc23)cc1`: 806 s.
Next, `CCCN1C(=O)c2cc(C(=O)NCc3ccccc3F)nn2CC1(C)C(=O)NC1CCCC1` (stereo not given): 836 s; `CCCCC(C)C(=O)NC1CCN(C2=NS(=O)(=O)C(c3ccc(C)c(C)c3)=C2C)CC1` (stereo not given): 987 s.
In turn, `COc1cc(NC(=O)Cn2nc3cc(-c4ccccc4)nc(C)n3c2=O)cc(OC)c1` registered an RP-LC retention time of 736 s.
In the case of `Cn1nc(-c2nnc(-c3ccccc3F)o2)c2c1CCN(S(=O)(=O)c1ccc(F)cc1)C2`, the RP-LC retention time came out at 903 s.
`COCCN1CN=C(Nc2nc(C)c3cccc(C)c3n2)NC1` gave an RP-LC retention time of 644 s.
Molecule `O=C(C1=CCN(Cc2ccc(F)cc2)CC1)N1CCN(c2ccccc2Cl)CC1` showed an RP-LC retention time of 723 s.
For `Cc1ccc(Cl)cc1NC(=O)N(C)CC1CCOC1` (stereo not given) the value was 757 s; for `CCn1cnnc1C1CCN(C(=O)c2ccc3c(c2)OCO3)CC1`, 534 s.
The molecule `O=C(Nc1ccccc1)c1c(O)c2cccnc2n(-c2cccc(F)c2)c1=O` yielded an RP-LC retention time of 1210 s.
`COc1ccc(CN2C[C@@H]3C(=O)N(Cc4ccc5c(c4)OCO5)C(=O)[C@@H]3C2)cc1OC` had an RP-LC retention time of 659 s.
Next, `Cc1cccc(NC(=O)NCC(c2cccnc2)c2c[nH]c3ccccc23)c1` (stereo not given): 673 s.
For `O=C(NCCc1nc2ccccc2n1CC(=O)N1CCCC1)c1cccnc1` the value was 566 s; for `CCc1ccc2[nH]c3c(c(=O)c2c1)CN(CC(=O)NCc1ccc(F)cc1)CC3`, 626 s; for `O=C(Nc1c(-c2ccccc2)nc2ccc(Cl)cn12)c1ccc(F)cc1`, 750 s.
Consider `Cc1cc2c(N3CCCC(C(=O)N4CCN(c5ccc(F)cc5)CC4)C3)nccc2s1` (stereo not given), for which the RP-LC retention time was 726 s.
`O=C(Cc1ccsc1)N1CCC(Nc2ncnc3c2CCC3)C1` (stereo not given) yielded an RP-LC retention time of 588 s.
For `COc1ccc(NC(=O)N2CCCC2c2nc(-c3ccccc3OC)no2)cc1` (stereo not given) the value was 826 s; for `O=C(Cc1csc(-c2ccccc2)n1)Nc1nc(-c2cccc(Br)c2)cs1`, 1270 s; for `CCCCN(CC)C(=O)C1CCN(S(=O)(=O)c2ccc3c(c2)NC(=O)CO3)CC1`, 784 s.
`O=C(c1cccs1)N1CCCC(c2ccnc(Nc3cccc(F)c3)n2)C1` (stereo not given) had an RP-LC retention time of 957 s.
Consider `Cc1nc(-c2cccnc2)nc2c1CCC(=O)N2Cc1ccccc1`, for which the RP-LC retention time amounted to 766 s.
Next, `CCOc1ccc(C(=O)N2CCCN(c3cc(-c4ccc(Br)cc4)[nH]n3)CC2)cc1OCC`: 853 s; `CCCS(=O)(=O)N1CCc2ccc(NC(=O)c3cccn(C)c3=O)cc2C1`: 731 s; `CCc1nc2cc(-c3noc(-c4ccncc4)n3)ccc2o1`: 959 s.
For `O=C(c1ccc(Cl)cc1)N1CCN(c2nc(CN3CCOCC3)cs2)CC1` the value was 638 s; for `O=C(NCC1CCN(c2ncccn2)CC1)c1cccc(C(F)(F)F)c1`, 749 s.
Molecule `COCC1(O)CCOC2(CCN(Cc3ccccc3C)CC2)C1` (stereo not given) had an RP-LC retention time of 591 s.
For `COc1ccc(Cl)cc1NC(=O)N1CCCC(Cn2cnc3cccnc32)C1` (stereo not given) the value was 761 s.
As for `Cc1ccc(NC(=O)Cn2nc(N3CCOCC3)c3ccccc3c2=O)c(Br)c1`, the RP-LC retention time was 884 s.
Next, `O=C(NCC1CC1)c1c(O)c2sccc2n(Cc2ccccc2)c1=O`: 766 s; `O=C(C1CCN(S(=O)(=O)c2ccc(-c3noc(Cc4ccc(F)cc4)n3)cc2)CC1)N1CCCC1`: 971 s.
For `Cc1cccc(N(C(=O)Nc2ccccc2C)C2=NCCC2)c1` the value was 1100 s; for `CSc1ccc(Cl)c(-c2nc(-c3ccc4oc(C)nc4c3)no2)c1`, 1260 s.
`CCc1nncn1C1CCN(S(=O)(=O)c2cc(Cl)ccc2OC)CC1` registered an RP-LC retention time of 709 s.
